Results on one compound are retold here after publication PMC3486420, “In Vitro and In Vivo Characterizations of Chiglitazar, a Newly Identified PPAR Pan-Agonist” (PPAR Research, 2012).

The experiment has as its system 3T3-L1 cells. Description: Gene expression by RT-PCR in 3T3-L1 cells. Format: cell-based, mouse. The conditions noted are these: 48 h, 10 μM rosiglitazone, 10 μM chiglitazar, vs vehicle. An excerpt:
cDNAs for human retinoid X receptor (hRXR), PPARα, PPARγ, and PPARδ were obtained by reverse transcriptase polymerase chain reaction (RT-PCR) from human liver or adipose tissues. Amplified cDNAs were cloned into pcDNA3.1 expression vector (Invitrogen, Carlsbad, CA, USA). The integrity and fidelity of all constructs made were verified by DNA sequencing. Luciferase reporter plasmids, ACOX promoter for PPARγ and pHD(X3)-luc for PPARα, were kind gifts of Drs. TM McIntyre (University of Utah, USA) and RA Rachubinski (University of Alberta, Canada), respectively. PPRE-luc for PPARδ was constructed based on the previous report by insertion of the annealed oligonucleotides having four copies of the CYP4A6 PPRE (4 × […]) into the upstream of the luciferase coding sequence in pGL3-promoter vector (Promega, Madison, WI, USA). pCMVβGal was purchased from Clontech (Palo Alto, CA, USA). The mouse 3T3-L1 preadipocyte cell line, skeletal muscle C2C12 cell line, and macrophage RAW267.4 cell line and the human osteosarcoma U2OS cell line were obtained from the American Type Culture Collection (ATCC, Rockville, MD, USA). […]
Total RNA was extracted from cells or tissues with an RNeasy minikit (Qiagen, Valencia, CA, USA). […] PCR products were analyzed by electrophoresis on a 1.5% agarose gel stained with ethidium bromide. […]

As for `O=C(c1ccc(F)cc1)c1ccccc1NC(Cc1ccc(OCCn2c3ccccc3c3ccccc32)cc1)C(=O)O` (stereo not shown) [Chi, 2-[(2-(4-fluorobenzoyl)phenyl)amino]-3-[4-(2-carbazolylethoxy)-phenyl]-propionic acid], the “Expression of PPARγ downstream genes SREBP1 and adiponectin” value is “upregulated”.
